Measured values from patent US10175256B2, “Compositions and methods utilizing lysophosphatidylcholine scaffolds” (National University Of Singapore, priority 2013, dated 2019).
Several values for one entry are separate records, joined by “and”; a condition that tells them apart may be missing. Identical values can stand only once.

Tests used:
[1] = molecular target: T1, Mfsd2a (Mus musculus, UniProt Q9DA75); assay: Dietary DHA transport from mother to fetus (fetal brain uptake); assay type: in vivo, mice; parameters: from tissue; host or cells: living mice; brain (blood-brain barrier endothelium), liver, heart; fetal brain
T1 sequence (Q9DA75 1-534): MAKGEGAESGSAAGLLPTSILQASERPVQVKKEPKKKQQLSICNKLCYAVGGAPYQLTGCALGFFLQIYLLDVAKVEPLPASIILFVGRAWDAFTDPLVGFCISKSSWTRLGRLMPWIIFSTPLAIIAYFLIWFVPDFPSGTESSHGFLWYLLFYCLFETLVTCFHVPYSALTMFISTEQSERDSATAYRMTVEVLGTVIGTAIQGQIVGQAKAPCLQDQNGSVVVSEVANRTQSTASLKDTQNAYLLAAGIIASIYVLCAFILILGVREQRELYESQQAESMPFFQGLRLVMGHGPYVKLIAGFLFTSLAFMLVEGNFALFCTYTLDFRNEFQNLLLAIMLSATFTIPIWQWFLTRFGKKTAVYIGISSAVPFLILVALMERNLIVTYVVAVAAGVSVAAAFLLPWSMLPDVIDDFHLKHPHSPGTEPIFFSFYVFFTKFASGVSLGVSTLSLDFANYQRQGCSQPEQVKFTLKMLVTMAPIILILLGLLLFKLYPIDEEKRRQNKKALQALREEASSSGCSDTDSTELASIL
Experimental: FIG. 21. […] Heterozygous female mice were gavaged with 100 ul DHA oil (containing 26% DHA triglyceride and 6% EPA, total omega-3 is 35%) every 2 days for 2 weeks prior to conception in crosses with KO males. […] The rationale for using HET and KO intercrosses was to increase the yield of KO mice in this rescue study. During gestation, pregnant mice were continued on gavages of DHA every 2 days. Gavages of mothers continued during breastfeeding and pups were weaned onto normal diet at 3 weeks of age and gavaged every 2 days with DHA for 8 weeks. a, brain weight of adult WT (n=4) and KO (n=4) mice aged 8 weeks after treatment with dietary DHA oil. […] To test this possibility, pregnant het mothers intercrossed to KO fathers at e17.5-e19.5, were gavaged with [^14C]DHA and uptake into fetal brains were quantified. […] Data are expressed as mean±SEM. *P<0.05. ***P<0.001.
Male and female mice of age of 6-8 weeks were IV injected with 75 μl of 20 mM radiolabeled LPC-[…], 100 μl of 10 mM LPC-[^14C]DHA/BSA complex or 82 μl of 12.2 mM [^14C]DHA/BSA complex in a total volume of 150 μl of phosphate-buffered saline. […] Lipids from the organic phase were mixed with scintillant and scintillation counted. […] Brain sections of WT and KO with a thickness of 40 μm were prepared and scanned using green fluorescence mode in Typhoon FLA 9000 scanner (Agilent). […]

[2] = molecular target: T2, mouse Mfsd2a (Mus musculus, UniProt Q9DA75); assay: Cell-based free fatty acid transport/uptake in Mfsd2a expressing HEK293 cells (mass spectrometry, TLC; Table 1); settings: for % DHA in PC + lysoPC / % DHA in PE + lysoPE / % DHA in PI and lysoPI / % DHA in PS: Mfsd2a expressing HEK293 cells
T2 construct: expressed in transfected cells; host or cells: HEK293
T2 sequence (Q9DA75 1-534): T1 sequence (Q9DA75 1-534)
How it was run: (§1)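 HEK293 cells expressing mouse Mfsd2a, or mock controls, were incubated overnight with 100 μM BSA-complexed fatty acids. Lipids were extracted in hexane:isopropanol (3:2) and phospholipid species quantified by HPLC-MS/MS against spiked internal standards. For TLC, cells received 100 μM [^14C]-oleate overnight, and phospholipids and neutral lipids were resolved.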

[3] = system: mouse Mfsd2a; assay: as above; settings: mock HEK293 cells
How it was run: as §1

[4] = molecular target: T1, Mfsd2a; assay: In vivo transport of radiolabeled, fluorescent LPCs and unesterified DHA in Mfsd2a KO and wild-type mice; parameters: from tissue; host or cells: living mice; brain (blood-brain barrier endothelium), liver, heart; fetal brain
Experimental: Male and female mice of age of 6-8 weeks were IV injected with 75 μl of 20 mM radiolabeled LPC-[…], 100 μl of 10 mM LPC-[^14C]DHA/BSA complex or 82 μl of 12.2 mM [^14C]DHA/BSA complex in a total volume of 150 μl of phosphate-buffered saline. At 2 hours post injection, mice were anesthetized and perfused for 5 mins with PBS containing 0.5% BSA in order to remove blood and lipid tracer bound to the brain vasculature. Tissues were harvested for lipid extraction. For lipid extraction, tissues were weighed and similar amounts of tissues were homogenized in chloroform/methanol. Lipids from the organic phase were mixed with scintillant and scintillation counted. Similar experiments were also performed with an injection of 300 μg NBD-LPC/BSA or 300 μg TopFluor-LPC/BSA complex per mouse. In this experiment, mice were perfused for 5 mins with PBS followed 15 mins perfusion with 4% paraformaldehyde (PFA) for tissue fixation. Brain sections of WT and KO with a thickness of 40 μm were prepared and scanned using green fluorescence mode in Typhoon FLA 9000 scanner (Agilent). NBD-LPC accumulation was expressed as fluorescence of each section per its area. Dietary DHA transport from mother to fetus was also measured using [^14C]DHA/BSA complex. Pregnant females at e18.5 was gavaged with bolus of [^14C]DHA/BSA complex (200 μl of 10 mM [^14C]DHA/BSA/mouse). Brain of fetuses were collected 20 hours post-gavage and weighed. Lipid extraction and radioactivity were performed as described above.

[5] = 100 uM Alpha-linolenic fatty acid/BSA overnight, replicate columns
[6] = 100 uM Arachidonic fatty acid/BSA overnight
[7] = 100 uM Eicosapentaenoic fatty acid/BSA overnight
[8] = 100 uM Docosahexaenoic acid/BSA overnight
[9] = 100 uM Eicosapentaenoic acid/BSA overnight
[10] = 100 uM Linoleic fatty acid/BSA overnight
[11] = 100 uM Oleic fatty acid/BSA overnight

CCC=CCC=CCC=CCC=CCC=CCC=CCC[14C](=O)O [[^14C]DHA, [1-^14C]docosahexaenoic acid, reference compound]
brain uptake by KO embryos compared to wild-type embryos ([1]; e18.5, maternal gavage): dramatically reduced | reduction in fetal brain uptake, KO relative to het ([1]; pregnant het mothers gavaged at e17.5-e19.5): 80% | transport of unesterified fatty acid by Mfsd2a ([2]; HEK293 cells, 100 μM fatty acid/BSA overnight): did not transport | % DHA in PC + lysoPC [2, 5]: 0.2353% and 0.2194% and 0.2422% and 0.2191% | % DHA in PE + lysoPE [2, 5]: 13.49% and 15.19% and 13.82% and 14.8475% | % DHA in PI and lysoPI [2, 5]: 0.05995% and 0.06331% and 0.07073% and 0.06627% | % DHA in PS [2, 5]: 0.1602% and 0.1425% and 0.1723% and 0.1454% | % DHA in PC + lysoPC [2, 6]: 0.08166% and 0.07964% and 0.09753% and 0.09194% | % DHA in PE + lysoPE [2, 6]: 7.284% and 8.765% and 7.721% and 8.735% | % DHA in PI and lysoPI [2, 6]: 0.01388% and 0.01389% and 0.0161% and 0.01507% | % DHA in PS ([2]; 100 uM Arachidonic fatty acid/BSA overnight, replicate columns): 0.1231% and 0.1085% and 0.1181% and 0.1151% | % DHA in PE + lysoPE [2, 7]: 18.3299% and 16.89% and 16.6% and 16.53% | % DHA in PI and lysoPI [2, 7]: 0.048% and 0.05677% and 0.0498% and 0.05152% | % DHA in PS [2, 7]: 0.2062% and 0.2182% and 0.1861% and 0.2178% | % DHA in PC + lysoPC ([2]; 100 uM Linoleic fatty acid/BSA overnight, replicate columns): 0.06735% and 0.06556% and 0.06667% and 0.06486% | % DHA in PC + lysoPC [2, 8]: 0.4167% and 0.3839% and 0.3923% and 0.3416% | % DHA in PE + lysoPE [2, 8]: 26.88% and 25.05% and 25.61% and 24.93% | % DHA in PI and lysoPI [2, 8]: 0.2363% and 0.1967% and 0.2348% and 0.1831% | % DHA in PS [2, 8]: 0.4937% and 0.5293% and 0.485% and 0.4533% | % DHA in PC + lysoPC [2, 9]: 0.1577% and 0.1414% and 0.143% and 0.141% | % DHA in PE + lysoPE [2, 10]: 10.0396% and 9.979% and 10.14% and 10.29% | % DHA in PI and lysoPI [2, 10]: 0.01746% and 0.01513% and 0.01522% and 0.01521% | % DHA in PS [2, 10]: 0.1229% and 0.1239% and 0.1343% and 0.1145% | % DHA in PC + lysoPC [2, 11]: 0.04304% and 0.04054% and 0.04274% and 0.04139% | % DHA in PE + lysoPE [2, 11]: 10.39% and 10.24% and 9.206% and 11.33% | % DHA in PI and lysoPI [2, 11]: 0.01405% and 0.01452% and 0.01424% and 0.01275% | % DHA in PC + lysoPC [3, 6]: 0.09113% and 0.09288% and 0.09495% | % DHA in PE + lysoPE [3, 6]: 8.696% and 8.987% and 7.919% | % DHA in PI and lysoPI [3, 6]: 0.01273% and 0.01321% and 0.01121% | % DHA in PE + lysoPE [3, 7]: 15.99% and 18.52% and 17.73% | % DHA in PI and lysoPI [3, 7]: 0.03815% and 0.04977% and 0.04803% | % DHA in PS [3, 7]: 0.1841% and 0.2258% and 0.1957% | % DHA in PC + lysoPC [3, 8]: 0.4237% and 0.3234% and 0.432% | % DHA in PE + lysoPE [3, 8]: 26.43% and 26.89% and 27.48% | % DHA in PI and lysoPI [3, 8]: 0.204% and 0.2547% and 0.2244% | % DHA in PS [3, 8]: 0.5491% and 0.6402% and 0.653% | % DHA in PC + lysoPC [3, 9]: 0.1385% and 0.1469% and 0.1528% | % DHA in PE + lysoPE [3, 10]: 9.697% and 10.5% and 10.2% | % DHA in PI and lysoPI [3, 10]: 0.01565% and 0.01716% and 0.01581% | % DHA in PS [3, 10]: 0.1596% and 0.1455% and 0.1427% | % DHA in PC + lysoPC [3, 11]: 0.04427% and 0.04402% and 0.04911% | % DHA in PE + lysoPE [3, 11]: 10.41% and 11.83% and 10.1% | % DHA in PI and lysoPI [3, 11]: 0.01286% and 0.01294% and 0.01231% | brain uptake in KO mice relative to wild-type ([4]; i.v. injection, 2 hrs post-injection, radiolabel): not reduced | brain uptake, unesterified DHA compared with LPC-DHA ([4]; wild-type brain, same amount injected i.v., 2 hrs): significantly lower
